Structures can show the parent of a compound that is named as a salt.

The target of this experiment is T1, Nav 1.7 (Homo sapiens, UniProt Q15858).
T1 construct: expressed in transfected cells
T1 sequence (Q15858 whole entry): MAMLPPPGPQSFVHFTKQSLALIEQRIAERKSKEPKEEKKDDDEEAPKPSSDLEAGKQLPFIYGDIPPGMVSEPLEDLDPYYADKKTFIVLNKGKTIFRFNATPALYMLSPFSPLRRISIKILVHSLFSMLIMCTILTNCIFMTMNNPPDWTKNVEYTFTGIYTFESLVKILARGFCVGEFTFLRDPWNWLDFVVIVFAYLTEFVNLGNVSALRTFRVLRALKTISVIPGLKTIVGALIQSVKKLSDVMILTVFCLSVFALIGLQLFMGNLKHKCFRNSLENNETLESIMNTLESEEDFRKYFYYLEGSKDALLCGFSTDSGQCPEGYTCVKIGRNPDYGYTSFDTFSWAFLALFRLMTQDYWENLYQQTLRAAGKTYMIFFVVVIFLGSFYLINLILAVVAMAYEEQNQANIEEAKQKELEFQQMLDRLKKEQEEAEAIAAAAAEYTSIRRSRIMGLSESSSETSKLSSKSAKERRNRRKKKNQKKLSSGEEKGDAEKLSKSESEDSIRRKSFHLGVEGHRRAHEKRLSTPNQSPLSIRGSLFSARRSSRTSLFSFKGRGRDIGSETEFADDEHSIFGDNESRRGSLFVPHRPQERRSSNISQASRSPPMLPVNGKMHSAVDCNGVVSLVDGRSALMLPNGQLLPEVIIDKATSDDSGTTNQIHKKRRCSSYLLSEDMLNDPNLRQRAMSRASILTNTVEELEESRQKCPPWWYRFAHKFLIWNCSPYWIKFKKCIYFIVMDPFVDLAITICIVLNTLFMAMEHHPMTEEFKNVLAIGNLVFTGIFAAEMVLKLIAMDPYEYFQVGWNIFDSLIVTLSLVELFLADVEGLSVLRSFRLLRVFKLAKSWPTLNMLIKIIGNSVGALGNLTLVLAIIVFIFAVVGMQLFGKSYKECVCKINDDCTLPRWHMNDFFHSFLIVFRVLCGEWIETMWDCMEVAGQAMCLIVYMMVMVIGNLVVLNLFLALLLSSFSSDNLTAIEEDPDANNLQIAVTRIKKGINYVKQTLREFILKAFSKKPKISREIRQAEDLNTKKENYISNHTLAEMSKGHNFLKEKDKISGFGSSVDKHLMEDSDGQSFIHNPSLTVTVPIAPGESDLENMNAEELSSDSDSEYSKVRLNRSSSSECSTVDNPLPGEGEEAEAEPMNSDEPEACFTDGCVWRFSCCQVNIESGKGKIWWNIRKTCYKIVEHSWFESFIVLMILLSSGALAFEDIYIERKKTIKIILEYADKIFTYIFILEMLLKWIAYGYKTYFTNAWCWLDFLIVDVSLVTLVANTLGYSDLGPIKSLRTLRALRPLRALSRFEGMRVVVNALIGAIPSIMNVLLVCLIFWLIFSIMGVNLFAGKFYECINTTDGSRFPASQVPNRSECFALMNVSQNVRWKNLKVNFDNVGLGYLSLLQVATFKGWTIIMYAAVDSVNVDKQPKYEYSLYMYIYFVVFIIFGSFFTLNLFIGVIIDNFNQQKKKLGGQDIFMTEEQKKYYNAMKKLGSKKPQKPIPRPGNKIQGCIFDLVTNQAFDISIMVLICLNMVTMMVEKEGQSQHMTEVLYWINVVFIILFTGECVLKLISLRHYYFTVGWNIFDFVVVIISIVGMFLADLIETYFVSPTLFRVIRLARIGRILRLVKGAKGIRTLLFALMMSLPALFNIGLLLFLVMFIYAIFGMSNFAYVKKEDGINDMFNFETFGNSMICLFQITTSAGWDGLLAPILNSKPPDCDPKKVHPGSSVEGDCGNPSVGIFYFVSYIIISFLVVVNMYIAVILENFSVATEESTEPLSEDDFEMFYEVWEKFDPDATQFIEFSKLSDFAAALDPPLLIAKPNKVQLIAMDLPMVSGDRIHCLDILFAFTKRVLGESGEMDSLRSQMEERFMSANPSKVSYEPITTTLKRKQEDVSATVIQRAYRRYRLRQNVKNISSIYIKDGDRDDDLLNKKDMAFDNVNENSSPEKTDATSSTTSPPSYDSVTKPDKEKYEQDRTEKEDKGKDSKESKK
Nature of the experiment: Whole-cell voltage clamp electrophysiology, automated patch clamp (marker c in Table of Examples). It is filed as cell-based. As to conditions: marker c = Automated patch clamp data; read-out: Nav 1.7 activity. The gist of the method:
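A voltage protocol weighted toward inactivated-state block was used to test compounds on stably expressing cells, with pulses from −65 mV holding to −10 mV test and −100 mV. Currents came from whole-cell automated patch-clamp recordings, either IonWorks Quattro or other automated instruments, usually in perforated-patch mode.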
As to `Nc1nc(Nc2ccc(F)c(F)c2)nc(-c2noc(-c3ccc(OCC(F)(F)F)nc3)n2)n1` [Example 416, 2-N-(3,4-difluorophenyl)-6-{5-[6-(2,2,2-trifluoroethoxy)pyridin-3-yl]-1,2,4-oxadiazol-3-yl}-1,3,5-triazine-2,4-diamine], the IC50 was determined as 1.5 µM. Consider `CN(c1nc(N)nc(-c2noc(-c3ccc(OCC(F)(F)F)nc3)n2)n1)c1ccc(F)cc1F` [Example 417, 2-N-(2,4-difluorophenyl)-2-N-methyl-6-{5-[6-(2,2,2-trifluoroethoxy)pyridin-3-yl]-1,2,4-oxadiazol-3-yl}-1,3,5-triazine-2,4-diamine], for which the IC50 amounted to 0.028 µM. For `CN(c1ccccc1)c1nc(N)nc(-c2noc(-c3ccc(Cl)nc3)n2)n1` [Example 418, 6-[5-(6-chloropyridin-3-yl)-1,2,4-oxadiazol-3-yl]-2-N-methyl-2-N-phenyl-1,3,5-triazine-2,4-diamine], the IC50 worked out at 1.64 µM. On to `CCOc1ncccc1-c1nc(-c2nc(N)nc(N(C)c3ccccc3)n2)no1` [Example 419, 6-[5-(2-ethoxypyridin-3-yl)-1,2,4-oxadiazol-3-yl]-2-N-methyl-2-N-phenyl-1,3,5-triazine-2,4-diamine], for which the IC50 came to 1.45 µM. For `CN(c1ccccc1)c1nc(N)nc(-c2noc(-c3ccc(C(F)(F)F)cn3)n2)n1` [Example 420, 2-N-methyl-2-N-phenyl-6-{5-[5-(trifluoromethyl)pyridin-2-yl]-1,2,4-oxadiazol-3-yl}-1,3,5-triazine-2,4-diamine], the IC50 came out at 2.3 µM.

As to `CN(c1ccccc1)c1nc(N)nc(-c2noc(-c3ccc(S(C)(=O)=O)cc3)n2)n1` [Example 421, 6-[5-(4-methanesulfonylphenyl)-1,2,4-oxadiazol-3-yl]-2-N-methyl-2-N-phenyl-1,3,5-triazine-2,4-diamine], the IC50 is 1.43 µM.

On to `CN(c1ccccc1)c1nc(N)nc(-c2noc(C3CCC(N)CC3)n2)n1` (centres unmarked) [Example 422, 6-[5-(4-Aminocyclohexyl)-1,2,4-oxadiazol-3-yl]-2-N-methyl-2-N-phenyl-1,3,5-triazine-2,4-diamine], for which the IC50 worked out at 9.43 µM. In the case of `CN(c1ccccc1)c1nc(N)nc(-c2noc(C3CCC(NC(=O)OC(C)(C)C)CC3)n2)n1` (centres unmarked) [Example 423, tert-butyl N-[4-(3-{4-amino-6-[methyl(phenyl)amino]-1,3,5-triazin-2-yl}-1,2,4-oxadiazol-5-yl)cyclohexyl]carbamate] it was 0.684 µM. Regarding `CN(c1ccccc1)c1nc(N)nc(-c2noc(C3CCC(O)CC3)n2)n1` (centres unmarked) [Example 424, 4-(3-{4-amino-6-[methyl(phenyl)amino]-1,3,5-triazin-2-yl}-1,2,4-oxadiazol-5-yl)cyclohexan-1-ol], the IC50 was found to be 2.81 µM. As for `CC(C)C(=O)NC1CCC(c2nc(-c3nc(N)nc(N(C)c4ccccc4)n3)no2)CC1` (centres unmarked) [Example 425, N-[4-(3-{4-Amino-6-[methyl(phenyl)amino]-1,3,5-triazin-2-yl}-1,2,4-oxadiazol-5-yl)cyclohexyl]-2-methylpropanamide], the figure is 2.45 µM; as for `CN(c1ccccc1)c1nc(N)nc(-c2noc(C3CCC(NC(=O)CC4CC4)CC3)n2)n1` (centres unmarked) [Example 426, N-[4-(3-{4-amino-6-[methyl(phenyl)amino]-1,3,5-triazin-2-yl}-1,2,4-oxadiazol-5-yl)cyclohexyl]-2-cyclopropylacetamide], 6.68 µM; as for `CN(c1ccccc1)c1nc(N)nc(-c2noc(C3CCC(NC(=O)CC(F)(F)F)CC3)n2)n1` (centres unmarked) [Example 427, N-[4-(3-{4-amino-6-[methyl(phenyl)amino]-1,3,5-triazin-2-yl}-1,2,4-oxadiazol-5-yl)cyclohexyl]-3,3,3-trifluoropropanamide], 4.92 µM. On to `CN(c1ccccc1)c1nc(N)nc(-c2noc(C3CCC(NC(=O)C(F)(F)F)CC3)n2)n1` (centres unmarked) [Example 428, N-[4-(3-{4-amino-6-[methyl(phenyl)amino]-1,3,5-triazin-2-yl}-1,2,4-oxadiazol-5-yl)cyclohexyl]-2,2,2-trifluoroacetamide], for which the IC50 was 5.95 µM. As for `CN(c1ccccc1)c1nc(N)nc(-c2noc(C3CCC(Oc4ccccc4)CC3)n2)n1` (centres unmarked) [Example 429, 2-N-methyl-6-[5-(4-phenoxycyclohexyl)-1,2,4-oxadiazol-3-yl]-2-N-phenyl-1,3,5-triazine-2,4-diamine], the figure is 0.289 µM; as for `Nc1nc(Nc2ccccc2)nc(-c2noc(-c3ncccc3C(F)(F)F)n2)n1` [Example 430, 2-N-phenyl-6-{5-[3-(trifluoromethyl)pyridin-2-yl]-1,2,4-oxadiazol-3-yl}-1,3,5-triazine-2,4-diamine], 0.146 µM. Take `Nc1nc(Nc2ccccc2)nc(-c2noc(-c3ncccc3Cl)n2)n1` [Example 431, 6-[5-(3-chloropyridin-2-yl)-1,2,4-oxadiazol-3-yl]-2-N-phenyl-1,3,5-triazine-2,4-diamine]: the IC50 came out at 0.142 µM. Turning to `CN(c1ccc(F)nc1)c1nc(N)nc(-c2noc(-c3ccc(OCC(F)(F)F)nc3)n2)n1` [Example 432, 2-N-(6-Fluoropyridin-3-yl)-2-N-methyl-6-{5-[6-(2,2,2-trifluoroethoxy)pyridin-3-yl]-1,2,4-oxadiazol-3-yl}-1,3,5-triazine-2,4-diamine], the IC50 is 6.29 µM. Consider `CN(c1ccccc1)c1nc(N)nc(-c2noc(N3CC[C@H](Oc4ccccc4)C3)n2)n1` [Example 433, 2-N-methyl-6-{5-[(3S)-3-phenoxypyrrolidin-1-yl]-1,2,4-oxadiazol-3-yl}-2-N-phenyl-1,3,5-triazine-2,4-diamine], for which the IC50 was determined as 0.161 µM. In the case of `CN(c1ccccc1)c1nc(N)nc(-c2noc(N3CC[C@@H](Oc4ccccc4)C3)n2)n1` [Example 434, 2-N-methyl-6-{5-[(3R)-3-phenoxypyrrolidin-1-yl]-1,2,4-oxadiazol-3-yl}-2-N-phenyl-1,3,5-triazine-2,4-diamine] it was 0.14 µM; in that of `COCCN(c1ccccc1)c1nc(N)nc(-c2noc(N3CC(Oc4ccccc4)C3)n2)n1` [Example 436, 2-N-(2-Methoxyethyl)-6-[5-(3-phenoxyazetidin-1-yl)-1,2,4-oxadiazol-3-yl]-2-N-phenyl-1,3,5-triazine-2,4-diamine], 0.171 µM; in that of `COCCN(c1ccccc1)c1nc(N)nc(-c2noc(-c3c(F)cccc3OC)n2)n1` [Example 437, 6-[5-(2-fluoro-6-methoxyphenyl)-1,2,4-oxadiazol-3-yl]-2-N-(2-methoxyethyl)-2-N-phenyl-1,3,5-triazine-2,4-diamine], 0.167 µM. In the case of `CN(c1ccccc1)c1nc(N)nc(-c2noc([C@@H]3CCCN3)n2)n1` [Example 438, 2-N-methyl-2-N-phenyl-6-{5-[(2S)-pyrrolidin-2-yl]-1,2,4-oxadiazol-3-yl}-1,3,5-triazine-2,4-diamine hydrochloride], the IC50 was found to be 2.09 µM. As for `CN(c1ccccc1)c1nc(N)nc(-c2noc([C@H]3CCCN3)n2)n1` [Example 439, 2-N-methyl-2-N-phenyl-6-{5-[(2R)-pyrrolidin-2-yl]-1,2,4-oxadiazol-3-yl}-1,3,5-triazine-2,4-diamine hydrochloride], the figure is 4.06 µM; as for `CN(c1ccccc1)c1nc(N)nc(-c2noc([C@@H]3CCCN3C(=O)OC(C)(C)C)n2)n1` [Example 440, tert-butyl (2S)-2-(3-{4-amino-6-[methyl(phenyl)amino]-1,3,5-triazin-2-yl}-1,2,4-oxadiazol-5-yl)pyrrolidine-1-carboxylate], 1.3 µM. For the compound `CN(c1ccccc1)c1nc(N)nc(-c2noc([C@@H]3CCCN3CCC(F)(F)F)n2)n1` [Example 441, 2-N-Methyl-2-N-phenyl-6-{5-[(2S)-1-(3,3,3-trifluoropropyl)pyrrolidin-2-yl]-1,2,4-oxadiazol-3-yl}-1,3,5-triazine-2,4-diamine], the IC50 turned out to be 1.45 µM.

With `CN(c1ccccc1)c1nc(N)nc(-c2noc([C@H]3CCCN3CCC(F)(F)F)n2)n1` [Example 442, 2-N-methyl-2-N-phenyl-6-{5-[(2R)-1-(3,3,3-trifluoropropyl)pyrrolidin-2-yl]-1,2,4-oxadiazol-3-yl}-1,3,5-triazine-2,4-diamine], the IC50 stood at 7.18 µM. Turning to `CN(c1ccccc1)c1nc(N)nc(-c2noc(N3CC[C@@H](OCC(F)(F)F)C3)n2)n1` [Example 443, 2-N-methyl-2-N-phenyl-6-{5-[(3R)-3-(2,2,2-trifluoroethoxy)pyrrolidin-1-yl]-1,2,4-oxadiazol-3-yl}-1,3,5-triazine-2,4-diamine], the IC50 is 7.29 µM. Regarding `COC[C@H]1CCCN1c1nc(-c2nc(N)nc(N(C)c3ccccc3)n2)no1` [Example 444, 6-{5-[(2R)-2-(methoxymethyl)pyrrolidin-1-yl]-1,2,4-oxadiazol-3-yl}-2-N-methyl-2-N-phenyl-1,3,5-triazine-2,4-diamine], the IC50 stood at 8 µM. Take `CN(c1ccccc1)c1nc(N)nc(-c2noc(N3CC[C@H](OCC(F)(F)F)C3)n2)n1` [Example 445, 2-N-methyl-2-N-phenyl-6-{5-[(3S)-3-(2,2,2-trifluoroethoxy)pyrrolidin-1-yl]-1,2,4-oxadiazol-3-yl}-1,3,5-triazine-2,4-diamine]: the IC50 amounted to 3.3 µM.

In the case of `COC[C@@H]1CCCN1c1nc(-c2nc(N)nc(N(C)c3ccccc3)n2)no1` [Example 446, 6-{5-[(2S)-2-(methoxymethyl)pyrrolidin-1-yl]-1,2,4-oxadiazol-3-yl}-2-N-methyl-2-N-phenyl-1,3,5-triazine-2,4-diamine], the IC50 was determined as 3.62 µM. Regarding `CC(C)CS(=O)(=O)N1CCC[C@@H]1c1nc(-c2nc(N)nc(N(C)c3ccccc3)n2)no1` [Example 447, 2-N-methyl-6-{5-[(2R)-1-[(2-methylpropane)sulfonyl]pyrrolidin-2-yl]-1,2,4-oxadiazol-3-yl}-2-N-phenyl-1,3,5-triazine-2,4-diamine], the IC50 stood at 1.09 µM. As for `CN(c1ccccc1)c1nc(N)nc(-c2noc([C@H]3CCCN3S(=O)(=O)CC(F)(F)F)n2)n1` [Example 448, 2-N-methyl-2-N-phenyl-6-{5-[(2R)-1-[(2,2,2-trifluoroethane)sulfonyl]pyrrolidin-2-yl]-1,2,4-oxadiazol-3-yl}-1,3,5-triazine-2,4-diamine], the figure is 0.287 µM.

Values taken from patent publication US8895733B2 (Novartis AG, priority 2010, dated 2014).
